How the values were obtained:
Assay type in all cases: in vivo, human (post-menopausal women)
[1] = system: HR+, HER2− metastatic or loco-regionally recurrent breast cancer; test: SERENA-2 phase 2 study: PFS, RECIST 1.1, by Blinded Independent Central Review (BICR); conditions: all patients
Description: Measures to minimise bias: randomisation and blinding. This is an open-label study. All patients will receive active treatment. As the Investigators will not be blinded to study treatments, a BICR of tumour scans will be performed to provide independent tumour response assessment in addition to response evaluation by Investigator. To reduce potential bias during the study, eligible patients will be randomly allocated at a 1:1:1:1 ratio to receive 1 of the 4 study treatments.
Blinded Independent Central Review of tumour assessments. Coded copies of all imaging assessments (regardless of modality and including unscheduled visit scans) will be sent to an appointed Contract Research Organisation (CRO) for central analysis. Results of this independent review will not be communicated to Investigators, and the management of patients will be based solely upon the results of the RECIST assessment conducted by the Investigator. The imaging scans will be reviewed by 2 independent radiologists using RECIST version 1.1 and will be adjudicated, if required (i.e., 2 reviewers will review the scans and, in case of a disagreement, adjudication is performed by a separate reviewer). The independent reviewers will be blinded to study treatment.
The BICR will be conducted on an ongoing basis throughout the study. Where possible scans will be batched, and an in-patient series of assessments read together. For each patient, the BICR will define the overall visit response (i.e., the response obtained overall at each visit by assessing TLs, NTLs, and new lesions) and no programmatic derivation of overall visit response is necessary.
Blinded independent central review of tumour response. A sensitivity analysis for the primary endpoint for this study will be based on the BICR of the radiological scans. For each patient, the BICR will define the overall visit response (i.e., the response obtained overall at each visit by assessing TLS, NTLs and new lesions) data and no programmatic derivation of visit response is necessary. PFS will be derived programmatically from the overall visit responses determined for each visit. A BICR of all patients will be performed for the final database lock for the primary analysis of PFS. The BICR will cover all available scans up to the respective DCO.
As a sensitivity analysis to the primary endpoint, the above analysis methods will be repeated based on the BICR.

[2] = system: HR+, HER2− metastatic or loco-regionally recurrent breast cancer; test: SERENA-2 phase 2 study: objective response rate (ORR), patients with measurable disease; conditions: for Number of patients with response: includes unconfirmed responses; for Adjusted response rate (%): logistic regression, factors prior CDK4/6 inhibitor and lung and/or liver metastasis; for ORR: comparison against fulvestrant, odds ratio: odds ratio > 1 favors AZD9833; for (%) of patients with response: patients with measurable disease
Description: In embodiments the specification provides a method of treatment of hormone receptor positive (HR+), human epidermal growth factor receptor 2 negative (HER2−), metastatic or loco-regionally recurrent breast cancer, comprising administering camizestrant to a patient suffering from such cancer, characterised in that the cancer has recurred or progressed following at least one prior line of endocrine therapy, wherein the treatment delivers an improvement in objective response rate (ORR) relative to that obtainable with fulvestrant treatment. The ORR is defined as the percentage of patients with at least 1 Investigator-assessed visit response of complete response (CR) or partial response (PR) prior to any evidence of progression. Complete or partial responses are assessed according to the RECIST 1.1 criteria as detailed below. In embodiments the ORR derived from the method of treatment is at least 15.7%, for example 20.3%.
A complete response denotes the disappearance of all target lesions (TLs) since baseline. Any pathological lymph nodes selected as TLs must have a reduction in short axis to <10 mm. A partial response denotes an at least a 30% decrease in the sum of the diameters of TL, taking as reference the baseline sum of diameters. […] Further information on the evaluation of target and non-target lesions is provided below.
The objective response rate (ORR) will be compared between AZD9833 (each dose level) and fulvestrant using a logistic regression model adjusting for prior use of CDK4/6 inhibitors and presence of lung and/or liver metastases.
Secondary endpoints: objective response rate. The ORR is defined as the percentage of patients with at least 1 Investigator-assessed visit response of CR or PR prior to any evidence of progression. The ORR will be based on a subset of the FAS with measurable disease at baseline.
The ORR will be compared between AZD9833 (each dose level) and fulvestrant using a logistic regression model adjusting for prior use of CDK4/6 inhibitors and presence of lung and/or liver metastases. The results of the analysis will be presented in terms of an odds ratio for each treatment comparison together with its associated profile likelihood 90% CI and 2 sided p values (based on twice the change in log-likelihood resulting from the addition of a treatment factor to the model).

[3] = system: HR+, HER2− metastatic or loco-regionally recurrent breast cancer; test: SERENA-2 phase 2 study: clinical benefit rate at 24 weeks (CBR24); conditions: for Adjusted CBR24 rate (%): logistic regression, factors prior CDK4/6 inhibitor and lung and/or liver metastasis; for CBR24: comparison against fulvestrant, odds ratio: odds ratio > 1 favors AZD9833
Description: (§1) The CBR24 is defined as the percentage of patients who have a best objective response (BoR) of CR or PR in the first 25 weeks (to allow for a late assessment within the assessment window) or who have SD (without subsequent cancer therapy) for at least 23 weeks after start of treatment (to allow for an early assessment within the assessment window). The CBR is defined based on the Investigator's assessment of RECIST 1.1.
The CBR24 will be summarised by treatment group and analysed using a logistic regression model (similarly to the analysis for the ORR).
as §1, with “Secondary endpoints: clinical benefit rate at 24 weeks. The CBR24” for “The CBR24”, “The CBR will be defined based” for “The CBR is defined based”, “assessment of RECIST, and will be summarised by treatment group and analysed using a logistic regression model (similarly to the analysis for the ORR).” for “assessment of RECIST 1.1.”

Q: How did the “Hazard ratio for disease progression relative to fulvestrant” value ([1]; camizestrant 75 mg once daily) turn out when C[C@@H]1Cc2c(ccc3[nH]ncc23)[C@@H](c2ccc(NC3CN(CCCF)C3)cn2)N1CC(F)(F)F [camizestrant, N-(1-(3-fluoropropyl)azetidin-3-yl)-6-((6S,8R)-8-methyl-7-(2,2,2-trifluoroethyl)-6,7,8,9-tetrahydro-3H-pyrazolo[4,3-f]isoquinolin-6-yl)pyridin-3-amine] was run?
A: The value was 0.56.

Q: And the “Median PFS” value ([1]; camizestrant 75 mg once daily)?
A: Its value is 7.4 months.

Q: And the “Hazard ratio for disease progression relative to fulvestrant” value ([1]; camizestrant 150 mg once daily)?
A: Its value is 0.47.

Q: What about the “Median PFS” value ([1]; camizestrant 150 mg once daily) of the same molecule?
A: The value was 12.7 months.

Q: What about the “Number of patients with response” value ([2]; AZD9833 75 mg, N=70 with measurable disease) of the same molecule?
A: The value was 11.

Q: And the “Adjusted response rate (%)” value ([2]; AZD9833 75 mg)?
A: The value was 15.7%.

Q: What about the “ORR: comparison against fulvestrant, odds ratio” value ([2]; AZD9833 75 mg) of the same molecule?
A: The value was 1.43.

Q: What about the “(%) of patients with response” value ([2]; AZD9833 75 mg) of the same molecule?
A: Its value is “(15.7) %”.

Q: And the “Number of patients with response” value ([2]; AZD9833 150 mg, N=65 with measurable disease)?
A: The value was 13.

Q: And the “Adjusted response rate (%)” value ([2]; AZD9833 150 mg)?
A: The value was 20.3%.

Q: And the “ORR: comparison against fulvestrant, odds ratio” value ([2]; AZD9833 150 mg)?
A: Its value is 1.96.

Q: And the “(%) of patients with response” value ([2]; AZD9833 150 mg)?
A: Its value is “(20.0) %”.

Q: What about the “(%) of patients with clinical benefit at 24 weeks” value ([3]; AZD9833 75 mg) of the same molecule?
A: Its value is 48.6%.

Q: What about the “Number of patients with clinical benefit at 24 weeks” value ([3]; AZD9833 75 mg, N=70 evaluable) of the same molecule?
A: The value was 34.

Q: And the “Adjusted CBR24 rate (%)” value ([3]; AZD9833 75 mg)?
A: The value was 50.4%.

Q: And the “CBR24: comparison against fulvestrant, odds ratio” value ([3]; AZD9833 75 mg)?
A: Its value is 1.73.

Q: What about the “(%) of patients with clinical benefit at 24 weeks” value ([3]; AZD9833 150 mg) of the same molecule?
A: The value was 52.3%.

Q: What about the “Number of patients with clinical benefit at 24 weeks” value ([3]; AZD9833 150 mg, N=65 evaluable) of the same molecule?
A: The value was 34.

Q: What about the “Adjusted CBR24 rate (%)” value ([3]; AZD9833 150 mg) of the same molecule?
A: The value was 55.2%.

Q: What about the “CBR24: comparison against fulvestrant, odds ratio” value ([3]; AZD9833 150 mg) of the same molecule?
A: The value was 2.09.

Q: What does the source list for C[C@]12CC[C@@H]3c4ccc(O)cc4C[C@@H](CCCCCCCCC[S+]([O-])CCCC(F)(F)C(F)(F)F)[C@H]3[C@@H]1CC[C@@H]2O (stereo partly drawn) [fulvestrant, reference compound]?
A: Median PFS ([1]; fulvestrant 500 mg once monthly injection): 3.7 months; Number of patients with response ([2]; fulvestrant, N=68 with measurable disease): 8; Adjusted response rate (%) ([2]; fulvestrant): 11.5%; (%) of patients with response ([2]; fulvestrant): (11.8) %; (%) of patients with clinical benefit at 24 weeks ([3]; fulvestrant): 36.8%; Number of patients with clinical benefit at 24 weeks ([3]; fulvestrant, N=68 evaluable): 25; Adjusted CBR24 rate (%) ([3]; fulvestrant): 37.1%
